Test results as given in patent US8629168B2, “Benzoxazoles and oxazolopyridines being useful as janus kinases inhibitors” (priority 2006, dated 2014).

biological target: T1, GST-JAK2(808-1132) (Homo sapiens, UniProt O60674); experiment: EPK JAK/TYK-kinase family profiling assay (Caliper mobility shift), JAK2; assay type: biochemical; settings: Caliper mobility shift assay of Example 187, 20 μM ATP, read-out: IC50 with Test in present Example
T1 construct: GST-JAK2(808-1132) is purchased from Invitrogen; purchased Invitrogen (Carlsbad, USA) #4288
Source text: All four kinases of the JAK/TYK-kinase family are used as purified recombinant GST-fusion proteins, containing the active kinase domains. GST-JAK1(866-1154), GST-JAK3(811-1124), and GST-TYK2(888-1187) are expressed and purified by affinity chromatography. GST-JAK2(808-1132) is purchased from Invitrogen (Carlsbad, USA, #4288).
The kinase assays are based on the Caliper mobility shift assay using the LabChip 3000 systems. This technology is similar to capillary electrophoresis and uses charge driven separation of substrate and product in a microfluidic chip.
All kinase reactions are performed in 384 well microtiter plates in a total reaction volume of 18 μl. The assay plates are prepared with 0.1 μl per well of test compound in the appropriate test concentration, as described under the section “preparation of compound dilutions”. The reactions are started by combining 9 μl of substrate mix (consisting of peptide and ATP) with 9 μl of kinase dilution. The reactions are incubated for 60 minutes at 30° C. and stopped by adding 70 μl of stop buffer (100 mM Hepes, 5% DMSO, 0.1% Coating reagent, 10 mM EDTA, 0.015% Brij 35).
Fluorescently labeled synthetic peptides are used as substrates in all reactions. […] Specific assay conditions are described in Table 1:
The terminated reactions are transferred to a Caliper LabChip 3000 reader (Caliper Life Sciences, Mountain View, Calif., USA) and the turnover of each reaction is measured by determining the substrate/product ratio.
Test compounds are dissolved in DMSO (10 mM) and transferred into 1.4 mL flat bottom or V-shaped Matrix tubes carrying a unique 2D matrix chip by individual compound hubs. The numbers of these chips are distinctively linked to the individual compound identification numbers. The stock solutions are stored at −20° C. if not used immediately. For the test procedure the vials are defrosted and identified by a scanner whereby a working sheet is generated that guides the subsequent working steps.
Compound dilutions are made in 96 well plates. This format enabled the assay of maximally 40 individual test compounds at 8 concentrations (single points) including 4 reference compounds. The dilution protocol includes the production of pre-dilution plates, master plates and assay plates:
Pre-dilution plates: 96 polypropylene well plates are used as pre-dilution plates. A total of 4 pre-dilution plates are prepared including 10 test compounds each on the plate positions A1-A10, one standard compound at A11 and one DMSO control at A12. All dilution steps are done on a Hamilton STAR robot (Hamilton, Co., Reno, Nev., USA).
Master plates: 100 μL of individual compound dilutions including standard compound and controls of the 4 “pre-dilution plates” are transferred into a 384 “master plate” including the following concentrations 1,820, […], 182, 54.6, 18.2, 5.46, 1.82 and 0.546 μM, respectively in 90% of DMSO.
Assay plates: Identical assay plates are then prepared by pipetting 100 nL each of compound dilutions of the master plates into 384-well “assay plates”. In the following the compounds are mixed with 9 μL of assays components plus 9 μL enzyme corresponding to a 1:181 dilution steps enabling the final concentration of 10, 3.0, 1.0, 0.3, 0.1, 0.03, 0.01 and 0.003 μM, respectively. The preparation of the master plates are handled by the Matrix PlateMate Plus robot (Thermo Fisher Scientific, Handforth, Cheshire, United Kingdom) and replication of assay plates by the HummingBird robot (Genomic Solutions, Inc., Ann Arbor, Mich., USA).

T1 sequence (O60674 808-1132): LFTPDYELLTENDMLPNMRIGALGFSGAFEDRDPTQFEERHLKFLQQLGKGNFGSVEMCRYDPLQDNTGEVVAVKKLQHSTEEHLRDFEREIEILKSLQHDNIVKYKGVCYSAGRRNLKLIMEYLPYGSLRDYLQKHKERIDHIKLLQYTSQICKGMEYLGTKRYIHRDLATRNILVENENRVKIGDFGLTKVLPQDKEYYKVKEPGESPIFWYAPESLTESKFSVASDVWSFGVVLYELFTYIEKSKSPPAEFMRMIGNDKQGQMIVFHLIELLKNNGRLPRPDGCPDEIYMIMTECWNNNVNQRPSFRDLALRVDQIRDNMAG

Row | IC50 | SMILES
1 | 0.03 µM | COc1ccc(Nc2nc3cccc(-c4ccc(C(=O)N5CCOCC5)c(C)c4)c3o2)cc1N1CCN(C)CC1 [Example 127, (4-{2-[4-Methoxy-3-(4-methyl-piperazin-1-yl)-phenylamino]-benzooxazol-7-yl}-2-methyl-phenyl)-morpholin-4-yl-methanone]
2 | 0.0111 µM | Cc1cc(Nc2nc3cccc(-c4ccc(C(=O)N5CCOCC5)c(C)c4)c3o2)ccc1CN1CCOCC1 [Example 166, {2-Methyl-4-[2-(3-methyl-4-morpholin-4-ylmethyl-phenylamino)-benzooxazol-7-yl]-phenyl}-morpholin-4-yl-methanone]
3 | 0.025 µM | COc1cc(Nc2nc3cccc(-c4ccc(C(=O)N5CCOCC5)cc4)c3o2)ccc1C(=O)N(C)C [Example 150, 2-Methoxy-N,N-dimethyl-4-{7-[4-(morpholine-4-carbonyl)-phenyl]-benzooxazol-2-ylamino}-benzamide]
4 | 0.165 µM | O=C1CCCN1c1ccc(Nc2nc3cccc(-c4cc(F)c(CN5CCOCC5)c(F)c4)c3o2)cc1 [Example 126, 1-{4-[7-(3,5-Difluoro-4-morpholin-4-ylmethyl-phenyl)-benzooxazol-2-ylamino]-phenyl}-pyrrolidin-2-one]
5 | 0.0062 µM | CN1CCN(c2ccc(Nc3nc4cccc(-c5ccc(C(=O)N6CCS(=O)(=O)CC6)c(F)c5)c4o3)cc2)CC1 [Example 80, (1,1-Dioxo-1lambda*6*-thiomorpholin-4-yl)-(2-fluoro-4-{2-[4-(4-methyl-piperazin-1-yl)-phenylamino]-benzooxazol-7-yl}-phenyl)-methanone]
6 | 0.039 µM | CNC(=O)c1ccc(Nc2nc3cccc(-c4cc(F)c(CN5CCOCC5)c(F)c4)c3o2)cc1C [Example 120, 4-[7-(3,5-Difluoro-4-morpholin-4-ylmethyl-phenyl)-benzooxazol-2-ylamino]-2,N-dimethyl-benzamide]
7 | 0.0205 µM | Cc1cc(Nc2nc3cccc(-c4ccc(C(=O)N5CCOCC5)c(F)c4)c3o2)ccc1N1CCN(C2CC2)CC1 [Example 156, (4-{2-[4-(4-Cyclopropyl-piperazin-1-yl)-3-methyl-phenylamino]-benzooxazol-7-yl}-2-fluoro-phenyl)-morpholin-4-yl-methanone]
8 | 0.0103 µM | COCCN1CCN(c2ccc(Nc3nc4cccc(-c5cc(F)c(CN6CCS(=O)(=O)CC6)c(F)c5)c4o3)cc2C)CC1 [Example 108, {7-[4-(1,1-Dioxo-1lambda*6*-thiomorpholin-4-ylmethyl)-3,5-difluoro-phenyl]-benzooxazol-2-yl}-{4-[4-(2-methoxy-ethyl)-piperazin-1-yl]-3-methyl-phenyl}-amine]
9 | 0.055 µM | COCCNC(=O)c1ccc(Nc2nc3cccc(-c4ccc(C(=O)N5CCOCC5)cc4)c3o2)cc1 [Example 145, N-(2-Methoxy-ethyl)-4-{7-[4-(morpholine-4-carbonyl)-phenyl]-benzooxazol-2-ylamino}-benzamide]
10 | 0.0101 µM | CCN1CCN(c2ccc(Nc3nc4cccc(-c5ccc(S(C)(=O)=O)cc5)c4o3)cc2C)CC1 [Example 92, [4-(4-Ethyl-piperazin-1-yl)-3-methyl-phenyl]-[7-(4-methanesulfonyl-phenyl)-benzooxazol-2-yl]-amine]
11 | 0.00645 µM | COCCN1CCN(c2ccc(Nc3nc4cccc(-c5ccc(C(=O)N6CCOCC6)c(C)c5)c4o3)cc2C)CC1 [Example 66, [4-(2-{4-[4-(2-Methoxy-ethyl)-piperazin-1-yl]-3-methyl-phenylamino}-benzooxazol-7-yl)-2-methyl-phenyl]-morpholin-4-yl-methanone]
12 | 0.043 µM | CCN(CC)C(=O)c1ccc(Nc2nc3cccc(-c4cc(F)c(CN5CCNCC5)c(F)c4)c3o2)cc1C [Example 118, 4-[7-(3,5-Difluoro-4-piperazin-1-ylmethyl-phenyl)-benzooxazol-2-ylamino]-N,N-diethyl-2-methyl-benzamide]
13 | 0.015 µM | CCN1CCN(C(=O)c2ccc(Nc3nc4cccc(-c5cc(F)c(CN6CCOCC6)c(F)c5)c4o3)cc2C)CC1 [Example 104, {4-[7-(3,5-Difluoro-4-morpholin-4-ylmethyl-phenyl)-benzooxazol-2-ylamino]-2-methyl-phenyl}-(4-ethyl-piperazin-1-yl)-methanone]
14 | 0.0089 µM | Cc1cc(-c2cccc3nc(Nc4ccc(N5CCN(C6CC6)CC5)c(C)c4)oc23)ccc1C(=O)N1CCS(=O)(=O)CC1 [Example 162, (4-{2-[4-(4-Cyclopropyl-piperazin-1-yl)-3-methyl-phenylamino]-benzooxazol-7-yl}-2-methyl-phenyl)-(1,1-dioxo-1lambda*6*-thiomorpholin-4-yl)-methanone]
15 | 0.0705 µM | O=C1CCCN1c1ccc(Nc2nc3cccc(-c4cc(F)c(CN5CCS(=O)(=O)CC5)c(F)c4)c3o2)cc1 [Example 125, 1-(4-{7-[4-(1,1-Dioxo-1lambda*6*-thiomorpholin-4-ylmethyl)-3,5-difluoro-phenyl]-benzooxazol-2-ylamino}-phenyl)-pyrrolidin-2-one]
16 | < 0.003 µM | Cc1cc(Nc2nc3cccc(-c4ccc(CN5CCS(=O)(=O)CC5)c(F)c4)c3o2)ccc1C(=O)N(C)C [Example 84, 4-{7-[4-(1,1-Dioxo-1lambda*6*-thiomorpholin-4-ylmethyl)-3-fluoro-phenyl]-benzooxazol-2-ylamino}-2,N,N-trimethyl-benzamide]
17 | 0.0069 µM | CCN1CCN(c2ccc(Nc3nc4cccc(-c5ccc(C(=O)N6CCOCC6)c(F)c5)c4o3)cc2C)CC1 [Example 94, (4-{2-[4-(4-Ethyl-piperazin-1-yl)-3-methyl-phenylamino]-benzooxazol-7-yl}-2-fluoro-phenyl)-morpholin-4-yl-methanone]
18 | 0.0165 µM | COc1cc(Nc2nc3cccc(-c4ccc(CO)cc4)c3o2)cc(OC)c1OC [Example 143, {4-[2-(3,4,5-Trimethoxy-phenylamino)-benzooxazol-7-yl]-phenyl}-methanol]
19 | < 0.003 µM | Cc1cc(Nc2nc3cccc(-c4ccc(CN5CCS(=O)(=O)CC5)cc4)c3o2)ccc1C(=O)N(C)C [Example 79, 4-{7-[4-(1,1-Dioxo-1lambda*6*-thiomorpholin-4-ylmethyl)-phenyl]-benzooxazol-2-ylamino}-2,N,N-trimethyl-benzamide]
20 | 0.0052 µM | CS(=O)(=O)c1ccc(Nc2nc3cccc(-c4ccc(CC(=O)N5CCOCC5)cc4)c3o2)cc1 [Example 124, 2-{4-[2-(4-Methanesulfonyl-phenylamino)-benzooxazol-7-yl]-phenyl}-1-morpholin-4-yl-ethanone]
21 | 0.0192 µM | Cc1cc(Nc2nc3cccc(-c4cc(F)c(CN5CCOCC5)c(F)c4)c3o2)ccc1C(=O)N1CCCC1 [Example 99, {4-[7-(3,5-Difluoro-4-morpholin-4-ylmethyl-phenyl)-benzooxazol-2-ylamino]-2-methyl-phenyl}-pyrrolidin-1-yl-methanone]
22 | 0.011 µM | CCN1CCN(c2ccc(Nc3nc4cccc(-c5cc(F)c(C(=O)N6CCOCC6)c(F)c5)c4o3)cc2C)CC1 [Example 109, (4-{2-[4-(4-Ethyl-piperazin-1-yl)-3-methyl-phenylamino]-benzooxazol-7-yl}-2,6-difluoro-phenyl)-morpholin-4-yl-methanone]
23 | 0.0093 µM | Cc1cc(Nc2nc3cccc(-c4ccc(C(=O)N5CCOCC5)c(C)c4)c3o2)ccc1C(=O)N(C)C [Example 85, 2,N,N-Trimethyl-4-{7-[3-methyl-4-(morpholine-4-carbonyl)-phenyl]-benzooxazol-2-ylamino}-benzamide]
24 | 0.018 µM | COc1cc(Nc2nc3cccc(-c4ccc(Cn5ccnc5)cc4)c3o2)cc(OC)c1OC [Example 136, [7-(4-Imidazol-1-ylmethyl-phenyl)-benzooxazol-2-yl]-(3,4,5-trimethoxy-phenyl)-amine]
25 | 0.015 µM | CCN1CCN(c2ccc(Nc3nc4cccc(-c5ccc(C(=O)N6CCS(=O)(=O)CC6)cc5)c4o3)cc2C)CC1 [Example 116, (1,1-Dioxo-1lambda*6*-thiomorpholin-4-yl)-(4-{2-[4-(4-ethyl-piperazin-1-yl)-3-methyl-phenylamino]-benzooxazol-7-yl}-phenyl)-methanone]
